Series [1] in a line: Body weight of tumor-bearing mice. It is filed as in vivo, Female BALB/c mice. To be noted: VGB3 0.02-0.5 mg/kg i.v., day 13 till 31; two-way ANOVA. The protocol:
(§1) Female BALB/c mice (5–7 weeks) were purchased from the Laboratory Animal Center of the Iran Pasteur Institute and maintained under standardized environmental conditions: 12 h light-dark phases, with free access to food and water. For treatment with VGB3, Tumor cells (4T1; 1×10^6 cells/500 μl or 1×10^5 cells/50 μl) were injected subcutaneously into the right flanks of mice (n=3–5). To generate the metastatic model, 4T1 tumor models were sterilized, excised from the breast cancer-bearing BALB/c mice, cut into pieces of <0.3 cm3, and subcutaneously implanted into the animals' right flanks under ketamine (100 mg/kg, i.p.) and xylazine (10 mg/kg, i.p.) anesthesia. Animals carrying tumors of size ~100mm3 were randomized to 6 mice/group (n=6). The treatment groups received 0.02, 0.1, 0.2 or 0.5 mg/kg of VGB3 on alternate days and the control group received PBS i.v. into the mice for 19 days from day 13. The tumor volume was measured every 5 days by a digital Vernier caliper (Mitutoyo, Japan), using the following formula: v=a^2×b×0.52 (where a is the shortest and b is the longest diameter). All studies were performed under the guidelines and with the approval of the Institutional Animal Care and Use Committee (IACUC) of Tehran University of Medical Sciences.

Series [2] has as its system 4T1 mammary carcinoma tumor. The series is described as follows: In vivo antitumor efficacy, 4T1 mammary carcinoma tumor model. Also on record: species or system Female BALB/c mice. The protocol: as §1
The test system of series [3] is HUVEC. It is filed as cell-based, human. As to the method: 2× 10^3 HUVEC and 4T1 cell-line were cultured in DMEM medium supplemented with 10% FBS at 37 °C with 5% CO2 in 96-well plate. After 24 h, The cells were incubated in the media supplemented with 2% FBS, different concentrations (0, 0.015, 0.03, 0.061 μM) of VGB3 in the presence of (0.03 μg.ml^-1) VEGF-A (Sigma, St. Louis, MO) for 24 and 48 respectively. Then, cell proliferation was quantified by 3-(4,5–dimethylthiazol-2-yl)-2 ,5-diphenyl tetrazolium bromide (MTT) (Sigma, St. Louis, MO) solution (5 mg/mL) in PBS (pH 7.4) was added to each well and the plates were incubated in the dark at 37 °C for 4 h. Then the insoluble purple formazan product was dissolved by dimethyl sulfoxide (DMSO). Absorbance was measured at 570 nm using an ELISA plate reader. The assay was performed in triplicate.

A further series has as its system 4T1 tumor tissues. The series is described as follows: Immunohistochemistry / TUNEL of excised 4T1 tumors. To be noted: VGB3 0.2 mg/kg vs PBS, n = 6. It is filed as in vivo, Female BALB/c mice. The protocol: as §1
Excised tumor tissues for immunohistochemical (IHC) analysis were fixed in formalin (4%), embedded in paraffin, sectioned, and stained with hematoxylin-eosin (H&E). IHC was followed by heat-induced epitope retrieval in a buffer at pH 9.0. IHC staining for CD31 and CD34 (to assign MVD), Ki67 (to determine the percentage of Ki67-positive cells), and P53 and Bcl-2 (to determine the fraction of apoptotic cells relative to total cells) was performed on formalin-fixed paraffin-embedded sections. Staining for cell death with TUNEL (terminal deoxynucleotidyl transferase nick-end labeling)) was performed, followed by enzymatic development in diaminobenzidine (DAB) (Invitrogen, Carlsbad, California, USA) detection and counter-staining in hematoxylin. Images were acquired by microscopy (Olympus BX-51, Japan). Numbers of positive cells were determined by analyzing five random tissue samples under scale bars 100 and 20 μm, with quantification using ImageJ.

The test system of series [4] is HUVEC. The series is described as follows: Wound healing assay (HUVEC migration). The conditions noted are these: compared with control; VGB3 0, 0.015, 0.03, 0.061 μM, 0.03 μg/ml VEGF-A, 2% FBS, 24 h. It is filed as cell-based, human. As to the method:
3 × 10^3 HUVECs were grown to confluence in 96-well plate. The monolayer was mechanically wounded using a sterile pipette tip followed by washing with PBS. The cells were incubated in the serum-starved DMEM medium containing 2% FBS and different concentrations (0, 0.015, 0.03, 0.061 μM) of VGB3 in the presence of (0.03 μg.ml^-1) VEGF-A for 24 h. Then HUVECs were washed with PBS two times and fixed using 4% paraformaldehyde at room temperature. After staining the cells with Giemsa, photographs were taken under a microscope (scale bar: 20 μm; Olympus BX-51, Japan) immediately and after 24 h incubation at the same location. Data are expressed as the average percentage wound closure for each group (n=6) of initial migrated cells at time 0 (T0), or as the percentage inhibition compared with a time-matched control. The wound area (the open area of the scratch) was quantified using ImageJ: (1 - (wound area at 24 h / wound area at 0 h))×100.

The source of these data is paper PMC7272640, “Molecular docking, synthesis and biological evaluation of Vascular Endothelial Growth Factor (VEGF) B based peptide as antiangiogenic agent targeting the second domain of the Vascular Endothelial Growth Factor Receptor 1 (VEGFR1D2) for anticancer application” (Signal Transduction and Targeted Therapy, 2020).

What is called IC50 is the concentration needed to halve the response being measured. High values mean weaker potency in that assay, low ones greater potency in that assay.

Where a SMILES comes first, the peptide text is derived from it.

On to `CC(C)C[C@@H]1NC(=O)CNC(=O)[C@H](CC(=O)O)NC(=O)[C@H](CC(=O)O)NC(=O)[C@@H]2CCCN2C(=O)[C@@H]2CCCN2C(=O)[C@H](CCCNC(=N)N)NC(=O)[C@@H](NC(=O)[C@@H](N)CCC(=O)O)CSSC[C@@H](C(=O)O)NC1=O` [VGB3] (HELM PEPTIDE1{E.C.R.P.P.D.D.G.L.C}$PEPTIDE1,PEPTIDE1,2:R3-10:R3$$$V2.0), for which the “body weight differences vs PBS control” value in series [1] is “no significant (NS) differences”. Besides, in series [2] (VGB3 0.2 mg/kg i.v. once in every 2 days vs reported bevacizumab 2 mg/kg, twice per week), the “inhibitory effects on tumor growth and angiogenesis compared with bevacizumab” value was “definitely higher”. Further, the “tumor growth inhibition vs PBS control” value in series [2] (i.v., alternate days, 19 days from day 13, n = 6, dose of the statement not specified) is given as “Significant inhibition of tumor growth”. For the same molecule, the IC50 in the series with HUVEC [3] (48 h) turned out to be 30 nM. In addition, the “inhibition of endothelial cell proliferation compared with other reported VEGF-B based peptides” value in the series on HUVEC [3] (comparison with refs 2,4,5) was “more effectively inhibited endothelial cell proliferation”. The “inhibition of endothelial cell proliferation compared with clinically used drugs such as Bevacizumab” value in the series on HUVEC [3] (endothelial cell culture conditions, comparison with refs 2,4,5) was “more potent”. Moreover, in the series on 4T1 tumor tissues (IHC), the Bcl-2 expression result is recorded as “decreased”, the CD31 expression result was “decreased”, the CD34 expression entry is listed as “decreased” and the Ki67 expression result is listed as “decreased”. Also, the p53 expression entry in the series with 4T1 tumor tissues (IHC) is listed as “increased”. Also, the TUNEL staining result in the series with 4T1 tumor tissues was “increased”. For the same molecule, in the series with HUVEC [4], the “migration of wounded HUVEC monolayers” value is “inhibits migration of wounded HUVEC monolayers compared with the control”.
